This note sets out measurements from patent US10829520B2, “Beta-hairpin peptidomimetics” (POLYPHOR AG, priority 2015, dated 2020).

Molecules are shown by their SMILES. Where a SMILES comes first, the peptide text is derived from it. Bridges are numbered along the chain shown (N, C = ends). [ ]: non-standard residue; d: D form. Tle = CC(C)(C)[C@H](N)C(=O)O; dDab = NCC[C@@H](N)C(=O)O; Orn = NCCC[C@H](N)C(=O)O; Dab = NCC[C@H](N)C(=O)O; Dap = NC[C@H](N)C(=O)O Where only a bound is given, the exact number is not on record here.

What all share (format): cell-based
Data set [1] relates to Acinetobacter baumannii 872842. To be noted: 872842.
Data set [2] has as its system Acinetobacter baumannii DSM 30008. To be noted: DSM 30008. An outline of the steps:
(§1)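 Inocula standardised to a 0.5 McFarland reference and diluted to about 10^6 CFU/mL in MH-II broth are incubated with two-fold peptide series containing 0.002% polysorbate 80. No visible growth after 18-20 hours at 35° C defines the MIC, in μg/mL.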

Data set [3] deals with Escherichia coli 926415. The following applies: 926415.
Data set [4] relates to Escherichia coli ATCC 25922. To be noted: ATCC 25922. An outline of the steps:
as §1

Data set [5] has as its system Klebsiella pneumoniae 968733. The following applies: 968733.
Data set [6] relates to Klebsiella pneumoniae SSI #3010. The following applies: SSI #3010. The method, boiled down:
as §1

Data set [7] deals with Pseudomonas aeruginosa ATCC 27853. The following applies: ATCC 27853. The method, boiled down: as §1
For data set [8], the system named is human red blood cells (hRBC). As to the kind of experiment: Hemolysis of human red blood cells. To be noted: red cells of human, 1 h, 100 μg/mL. The method, boiled down:
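Percent lysis of washed human erythrocytes after 1 h at 37° C. with 100 μg/mL peptide, calculated from OD540 of 8-fold diluted supernatant as a fraction of the 2.5% Triton X-100 value.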

Consider `CC(C)C[C@@H]1NC(=O)[C@@H](CC(C)C)NC(=O)[C@H](CCN)NC(=O)[C@@H](NC(=O)[C@H](CCN)NC(=O)[C@@H](CCN)NC(=O)[C@@H](NC(=O)[C@H](CCCN)NC(=O)[C@@H]2CSSC[C@H](NC(=O)[C@@H](N)Cc3c[nH]c4ccccc34)C(=O)N[C@@H](C(C)C)C(=O)NCC(=O)N[C@@H](CO)C(=O)N3CCC[C@@H]3C(=O)N3CCC[C@H]3C(=O)N[C@@H](C(C)C)C(=O)N[C@@H](CN)C(=O)N[C@@H](Cc3ccc(O)cc3)C(=O)N2)[C@@H](C)O)CCNC(=O)[C@H]([C@@H](C)O)NC(=O)[C@H](CCN)NC(=O)[C@H](CCN)NC1=O` [Ex. 136] (H-WCVGS[dP]PV[Dap]YC[Orn]T[dDab][Dab][Dab][Dab][dL]L[Dab][Dab]T; disulfide 2-11; lactam 16-C), for which the “Acinetobacter baumannii 872842 MIC” value in data set [1] was 0.25 µg/mL. The “Acinetobacter baumannii DSM 30008 MIC” value in data set [2] came out at 1 µg/mL. The “Escherichia coli 926415 MIC” value in data set [3] was 0.5 µg/mL. For the same compound, in data set [4], the “Escherichia coli ATCC 25922 MIC” value turned out to be 0.5 µg/mL. In addition, in data set [5], the “Klebsiella pneumoniae 968733 MIC” value stood at 4 µg/mL. Also, the “Klebsiella pneumoniae SSI #3010 MIC” value in data set [6] was 1 µg/mL. Besides, the “Pseudomonas aeruginosa ATCC 27853 MIC” value in data set [7] was 0.25 µg/mL. In addition, the “Hemolysis at 100 μg/mL” value in data set [8] is <1%.
For `CC(=O)N[C@@H](Cc1c[nH]c2ccccc12)C(=O)N[C@H]1CSSC[C@@H](C(=O)N[C@@H](CCCN)C(=O)N[C@H](CCN)C(=O)N[C@@H](CCN)C(=O)N[C@@H](CCN)C(=O)N[C@H]2CCNC(=O)[C@H]([C@@H](C)O)NC(=O)[C@H](CCN)NC(=O)[C@H](CCN)NC(=O)[C@H](CC(C)C)NC(=O)[C@@H](Cc3ccccc3)NC(=O)[C@H](CCN)NC2=O)NC(=O)[C@H](Cc2ccc(O)cc2)NC(=O)[C@H](CN)NC(=O)[C@H](Cc2ccccc2)NC(=O)[C@H](Cc2ccccc2)NC(=O)[C@H]2CCCN2C(=O)[C@H](CO)NC(=O)[C@H](C)NC(=O)[C@H](C(C)(C)C)NC1=O` [Ex. 137] (Ac-WC[Tle]AS[dP]FF[Dap]YC[Orn][dDab][Dab][Dab][Dab][Dab][dF]L[Dab][Dab]T; disulfide 2-11; lactam 16-C), the “Acinetobacter baumannii 872842 MIC” value in data set [1] was determined as 0.5 µg/mL. Besides, in data set [2], the “Acinetobacter baumannii DSM 30008 MIC” value came to 0.5 µg/mL. Further, the “Escherichia coli 926415 MIC” value in data set [3] was found to be 0.5 µg/mL. The “Escherichia coli ATCC 25922 MIC” value in data set [4] came out at 0.25 µg/mL. Further, the “Klebsiella pneumoniae 968733 MIC” value in data set [5] came out at 0.5 µg/mL. Further, in data set [6], the “Klebsiella pneumoniae SSI #3010 MIC” value is 0.5 µg/mL. In addition, the “Pseudomonas aeruginosa ATCC 27853 MIC” value in data set [7] is 1 µg/mL. In addition, in data set [8], the “Hemolysis at 100 μg/mL” value worked out at 4%.
With `CC(=O)N[C@@H](Cc1c[nH]c2ccccc12)C(=O)N[C@H]1CSSC[C@@H](C(=O)N[C@@H](CCCN)C(=O)N[C@H](C(=O)N[C@@H](CCN)C(=O)N[C@@H](CCN)C(=O)N[C@H]2CCNC(=O)[C@H]([C@@H](C)O)NC(=O)[C@H](CCN)NC(=O)[C@H](CCN)NC(=O)[C@H](CC(C)C)NC(=O)[C@@H](Cc3ccccc3)NC(=O)[C@H](CCN)NC2=O)[C@@H](C)O)NC(=O)[C@H](Cc2ccc(O)cc2)NC(=O)[C@H](Cc2c[nH]cn2)NC(=O)[C@H](Cc2c[nH]c3ccccc23)NC(=O)[C@@H]2CCCN2C(=O)[C@H]2CCCN2C(=O)[C@H](CO)NC(=O)[C@H](C)NC(=O)[C@H](C(C)(C)C)NC1=O` [Ex. 138] (Ac-WC[Tle]AS[dP]PWHYC[Orn]T[Dab][Dab][Dab][Dab][dF]L[Dab][Dab]T; disulfide 2-11; lactam 16-C), in data set [1], the “Acinetobacter baumannii 872842 MIC” value was found to be 1 µg/mL. For the same compound, in data set [2], the “Acinetobacter baumannii DSM 30008 MIC” value amounted to 0.5 µg/mL. Further, in data set [3], the “Escherichia coli 926415 MIC” value was 4 µg/mL. In addition, in data set [4], the “Escherichia coli ATCC 25922 MIC” value was 0.25 µg/mL. The “Klebsiella pneumoniae 968733 MIC” value in data set [5] was found to be 2 µg/mL. The “Klebsiella pneumoniae SSI #3010 MIC” value in data set [6] amounted to 0.5 µg/mL. Besides, in data set [7], the “Pseudomonas aeruginosa ATCC 27853 MIC” value was 4 µg/mL. Besides, in data set [8], the “Hemolysis at 100 μg/mL” value was 3%.
